Source: US20120302616A1, “METHOD OF TREATMENT OF OBSESSIVE COMPULSIVE DISORDER WITH ONDANSETRON” (priority 2010, published 2012)
Several values for one entry are separate records, joined by “and”; a condition that tells them apart may be missing. Equal values may be shown once.

Key:
[1] = tested on: patients with treatment-resistant OCD; test: Ondansetron augmentation of SRI therapy, single-blind 12-week study with 4-week discontinuation follow-up (YBOCS, CGI); format: in vivo, human; design: reduction in CGI-I from baseline: concentration or dose not given beside the values; conditions: for CGI-I Score / YBOCS % Reduction / YBOCS Score: individual patients (21); for Compulsion Subdomain YBOCS % Reduction / Obsession Subdomain YBOCS % Reduction / Compulsion Subdomain YBOCS Score / Obsession Subdomain YBOCS Score: individual patients
Description: Twenty-one patients with a DSM-IV diagnosis of treatment-resistant OCD, under stable treatment with SRIs approved by the FDA for OCD therapy, received 12 weeks of single-blind ondansetron augmentation initiated at a dose of 0.25 mg twice daily for 2 weeks, and titrated to 0.5 mg twice daily for 10 weeks. Patients were rated every two weeks using the Yale Brown Obsessive Compulsive Scale (YBOCS) and Clinical Global Impressions Scale (CGI). Treatment-resistant patients were defined as having completed an adequate trial of SRIs at a moderate to high dose for at least 12 weeks and still having a YBOCS severity of >24, and CGI-Severity of ≧4. Treatment response was defined as an additional 25% reduction in YBOCS score from YBOCS score at the initiation of ondansetron augmentation, an end of treatment (EOT) period YBOCS of ≦24, and CGI-Improvement (CGI-I) of ≦2. Additionally, ondansetron was discontinued after 12 weeks and patients were followed up for another 4 weeks for relapse in YBOCs symptoms. The obsession and compulsion subdomains of the Y-BOCS were also analyzed to determine whether ondansetron would selectively affect one subdomain or the other.

[2] = tested on: patients with treatment-resistant OCD; test: Side effects and vital signs in the SRI plus antipsychotic augmentation study; format: in vivo, human
Description: The Y-BOCS, Montgomery-Asberg Depression Rating Scale (MADRS) (see Montgomery, S. A., BR J PSYCHIATRY 1979; 134:382-389) was administered at screening and baseline, and these assessments were repeated at every follow-up visit at 2-week intervals, along with the Clinical Global Impressions-Improvement (CGI-I) rating (see Guy, W. ECDEU Assessment Manual for Psychopharmacology. US Dept Health, Education, and Welfare publication (ADM) 76-338. Rockville, Md.: National Institute of Mental Health; 1976:218-222) and an unpublished Drug Effect scale. The Drug Effect scale asked subjects to rate “How anxious are you now?” on a scale of zero (not at all) to 10 (“the most anxious I have ever been”). Similar rating questions have been “Do you experience appearance or increment in frequency of headaches?”, “Do you experience appearance or increment in frequency of headaches fatigue?” and “Do you experience appearance or increment in frequency of headaches constipation” and so on regarding other common ondansetron side effects (diarrhea, urinary retention, itching, and dizziness). Furthermore, each evening during the first week of study medication, a study psychiatrist called the subject to ask for major or unexpected collateral effects (as chest pain, an unexplained skin rash, or tremors.). […] (See Mittmann, N. et al., AM J PSYCHIATRY 1997; 154:320-321) Subjects with MADRS scores ≧18 were excluded. Ratings were administered by an investigator who was blind to the treatment condition of the patients.
One patient reported a mild increase in anxiety levels, which lasted only one night. No change in mean pulse rate or mean blood pressure was observed. […] The daily dose of 1 mg/day divided in twice daily administration, approximately 5% of the minimum dose recommended for emesis and nausea treatment was reached after 6 weeks and maintained until the 12th week.

[3] = Week 14 (after discontinuation), Non-Responders
[4] = Week 14 (after discontinuation), Responders
[5] = Week 16 (after discontinuation), Non-Responders
[6] = Week 16 (after discontinuation), Responders
[7] = first 2 weeks of treatment, n=14

Cc1nccn1CC1CCc2c(c3ccccc3n2C)C1=O (centres unmarked) [ondansetron]
tolerability of treatment ([1]; 0.25 mg twice daily 2 weeks, then 0.5 mg twice daily 10 weeks): well tolerated | CGI-I Score ([1]; 6 Weeks): 2 (7×) and 3 (2×) and 5 (6×) and 1 (3×) and 4 (3×) | YBOCS % Reduction ([1]; 6 Weeks): 16.00% and 0.00% (3×) and 5.00% | YBOCS Score ([1]; 6 Weeks): 22 and 19 (3×) and 28 and 21 (2×) and 27 and 24 (2×) and 14 and 29 (3×) and 38 and 32 and 17 and 25 and 16 and 26 and 31 | Compulsion Subdomain YBOCS % Reduction ([1]; 6 weeks, Non-Responders): −7.14% and 5.00% and −13.33% and −15.38% and 13.33% and 14.29% and 0.00% and 12.50% and −16.67% | Obsession Subdomain YBOCS % Reduction ([1]; 6 weeks, Non-Responders): 16.67% and 0.00% (3×) and 5.00% and −7.69% and −6.67% and 6.25% and 12.50% | Compulsion Subdomain YBOCS % Reduction ([1]; 6 weeks, Responders): 38.46% and 33.33% (2×) and 29.41% and 52.94% and 25.00% and 58.33% and 50.00% and 18.75% and 53.33% and 40.00% and 16.67% | Obsession Subdomain YBOCS % Reduction ([1]; 6 weeks, Responders): 26.67% and 35.29% and 25.00% (3×) and 31.25% and 33.33% and 23.08% and 20.00% and 29.41% and 28.57% and 15.38% | CGI-I Score ([1]; 12 Weeks): 1 (10×) and 5 (8×) and 4 and 2 (2×) | YBOCS % Reduction ([1]; 12 Weeks): 44.00% and 50.00% and 2.50% and −7.14% | YBOCS Score ([1]; 12 Weeks): 21 (2×) and 17 and 28 and 14 (2×) and 16 (3×) and 19 (2×) and 23 and 13 and 25 and 39 and 34 and 30 (2×) and 29 and 15 and 27 | average reduction in CGI-I scores for the whole group ([1]; 12 weeks): 46% | Compulsion Subdomain YBOCS % Reduction ([1]; 12 weeks, Non-Responders): 7.14% and 0.00% (2×) and −26.67% and −23.08% and 6.67% and 14.29% and 12.50% and −8.33% | Obsession Subdomain YBOCS % Reduction ([1]; 12 weeks, Non-Responders): 16.67% and 14.29% and 5.00% and 0.00% (2×) and −7.69% and −7.14% and 12.50% (2×) | Compulsion Subdomain YBOCS % Reduction ([1]; 12 weeks, Responders): 38.46% and 46.67% (2×) and 41.18% and 58.82% and 45.00% and 58.33% and 64.29% and 43.75% and 53.33% and 33.33% and 41.67% | Obsession Subdomain YBOCS % Reduction ([1]; 12 weeks, Responders): 46.67% and 52.94% and 43.75% (2×) and 44.44% and 33.33% (3×) and 30.77% and 35.29% and 35.71% and 46.15% | difference between YBOCS score at baseline and after 12 weeks ([1]; Non-responders): 2.9% | Compulsion Subdomain YBOCS Score, Mean ([1]; Week 2, Non-Responders): 14.78 | Obsession Subdomain YBOCS Score, Mean ([1]; Week 2, Non-Responders): 14.67 | Compulsion Subdomain YBOCS Score ([1]; Week 2, Non-Responders): 15 | Obsession Subdomain YBOCS Score ([1]; Week 2, Non-Responders): 12 | Compulsion Subdomain YBOCS Score, Mean ([1]; Week 2, Responders): 11.33 | Obsession Subdomain YBOCS Score, Mean ([1]; Week 2, Responders): 12.58 | Compulsion Subdomain YBOCS Score ([1]; Week 2, Responders): 11 and 12 (5×) and 10 (3×) and 16 and 5 and 14 | Obsession Subdomain YBOCS Score ([1]; Week 2, Responders): 12 (4×) and 14 (3×) and 10 and 11 (2×) and 13 and 16 | Compulsion Subdomain YBOCS Score, Mean ([1]; Week 4, Non-Responders): 15.00 | Obsession Subdomain YBOCS Score, Mean ([1]; Week 4, Non-Responders): 14.44 | Compulsion Subdomain YBOCS Score ([1]; Week 4, Non-Responders): 15 | Obsession Subdomain YBOCS Score ([1]; Week 4, Non-Responders): 11 | Compulsion Subdomain YBOCS Score, Mean ([1]; Week 4, Responders): 10.08 | Obsession Subdomain YBOCS Score, Mean ([1]; Week 4, Responders): 11.50 | Compulsion Subdomain YBOCS Score ([1]; Week 4, Responders): 9 (3×) and 11 (2×) and 12 and 14 and 5 and 10 (2×) and 13 and 8 | Obsession Subdomain YBOCS Score ([1]; Week 4, Responders): 11 (3×) and 13 (4×) and 12 (2×) and 9 and 10 (2×) | Compulsion Subdomain YBOCS Score, Mean ([1]; Week 6, Non-Responders): 15.00 | Obsession Subdomain YBOCS Score, Mean ([1]; Week 6, Non-Responders): 14.56 | Compulsion Subdomain YBOCS Score ([1]; Week 6, Non-Responders): 15 | Obsession Subdomain YBOCS Score ([1]; Week 6, Non-Responders): 10 | Compulsion Subdomain YBOCS Score, Mean ([1]; Week 6, Responders): 9.50 | Obsession Subdomain YBOCS Score, Mean ([1]; Week 6, Responders): 10.83 | Compulsion Subdomain YBOCS Score ([1]; Week 6, Responders): 8 (2×) and 10 (3×) and 12 and 15 and 5 and 7 (2×) and 13 and 9 | Obsession Subdomain YBOCS Score ([1]; Week 6, Responders): 11 (4×) and 12 (4×) and 9 (2×) and 10 (2×) | Compulsion Subdomain YBOCS Score, Mean ([1]; Week 8, Non-Responders): 15.22 | Obsession Subdomain YBOCS Score, Mean ([1]; Week 8, Non-Responders): 14.44 | Compulsion Subdomain YBOCS Score ([1]; Week 8, Non-Responders): 13 | Obsession Subdomain YBOCS Score ([1]; Week 8, Non-Responders): 10 | Compulsion Subdomain YBOCS Score, Mean ([1]; Week 8, Responders): 8.83 | Obsession Subdomain YBOCS Score, Mean ([1]; Week 8, Responders): 10.00 | Compulsion Subdomain YBOCS Score ([1]; Week 8, Responders): 8 and 9 (2×) and 10 (3×) and 7 and 15 and 5 (2×) and 12 and 6 | Obsession Subdomain YBOCS Score ([1]; Week 8, Responders): 8 (2×) and 10 (5×) and 12 (3×) and 9 (2×) | Compulsion Subdomain YBOCS Score, Mean ([1]; Week 10, Non-Responders): 15.44 | Obsession Subdomain YBOCS Score, Mean ([1]; Week 10, Non-Responders): 14.44 | Compulsion Subdomain YBOCS Score, Mean ([1]; Week 10, Responders): 8.17 | Obsession Subdomain YBOCS Score, Mean ([1]; Week 10, Responders): 9.33 | Compulsion Subdomain YBOCS Score ([1]; Week 10, Responders): 8 (3×) and 9 and 10 (2×) and 7 and 11 (2×) and 5 (2×) and 6 | Obsession Subdomain YBOCS Score ([1]; Week 10, Responders): 8 (3×) and 10 (4×) and 9 (4×) and 12 | Compulsion Subdomain YBOCS Score, Mean ([1]; Week 12, Non-Responders): 15.22 | Obsession Subdomain YBOCS Score, Mean ([1]; Week 12, Non-Responders): 14.22 | Compulsion Subdomain YBOCS Score, Mean ([1]; Week 12, Responders): 7.92 | Obsession Subdomain YBOCS Score, Mean ([1]; Week 12, Responders): 8.83 | Compulsion Subdomain YBOCS Score ([1]; Week 12, Responders): 8 (3×) and 10 (2×) and 7 (3×) and 11 and 5 (2×) and 9 | Obsession Subdomain YBOCS Score ([1]; Week 12, Responders): 8 (4×) and 9 (4×) and 10 (2×) and 11 and 7 | Compulsion Subdomain YBOCS Score, Mean [1, 3]: 15.00 | Obsession Subdomain YBOCS Score, Mean [1, 3]: 14.00 | Compulsion Subdomain YBOCS Score, Mean [1, 4]: 10.67 | Obsession Subdomain YBOCS Score, Mean [1, 4]: 11.25 | Compulsion Subdomain YBOCS Score [1, 4]: 8 (2×) and 13 (3×) and 11 (3×) and 6 and 12 (2×) and 10 | Obsession Subdomain YBOCS Score [1, 4]: 9 (2×) and 14 (2×) and 12 (3×) and 13 and 11 (2×) and 8 and 10 | Compulsion Subdomain YBOCS Score, Mean [1, 5]: 14.78 | Obsession Subdomain YBOCS Score, Mean [1, 5]: 13.67 | Compulsion Subdomain YBOCS Score, Mean [1, 6]: 11.50 | Obsession Subdomain YBOCS Score, Mean [1, 6]: 11.67 | Compulsion Subdomain YBOCS Score [1, 6]: 8 (2×) and 13 (4×) and 14 and 12 (2×) and 15 and 6 and 11 | Obsession Subdomain YBOCS Score [1, 6]: 9 (2×) and 15 and 13 and 12 (3×) and 14 (2×) and 8 and 11 (2×) | overall ondansetron effects for obsessions versus compulsions ([1]; YBOCS subdomains): comparable | reduction in CGI-I from baseline ([1]; responders, after 12 weeks): 77% | reduction in YBOCS from baseline ([1]; responders, after 12 weeks): 44% | subjects with significant or lasting side effects (such as constipation) ([2]; 12 weeks): None | subjects with significant side effects or worsening of OC symptoms ([2]; at 6 weeks, fourteen subjects): None | patients with decreased appetite [2, 7]: two | patients with headache [2, 7]: two | patients with mild increase in anxiety levels ([2]; lasted only one night, n=14): One | mean pulse rate or mean blood pressure ([2]; n=14): No change | Side effects severity ([2]; throughout the study, n=14): mild to moderate
